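Test compounds were applied to cells in 96-well plates for 48 hours at 5 doses. TGI denotes the concentration required for complete inhibition of growth.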
Key:
Experiment in all cases: DTP human tumour cell line panel, 48 h
UO-31 renal = test system: UO-31 renal
UACC-62 melanoma = test system: UACC-62 melanoma
MALME-3M melanoma = test system: MALME-3M melanoma
HOP-62 NSCLC = test system: HOP-62 NSCLC
RPMI-8226 leukemia = test system: RPMI-8226 leukemia
K-562 leukemia = test system: K-562 leukemia
RXF-631 renal = test system: RXF-631 renal
SR leukemia = test system: SR leukemia
OVCAR-4 ovarian = test system: OVCAR-4 ovarian
HCT-116 colon = test system: HCT-116 colon
SNB-75 CNS = test system: SNB-75 CNS
LXFL 529 NSCLC = test system: LXFL 529 NSCLC
IGROV1 ovarian = test system: IGROV1 ovarian
SF-268 CNS = test system: SF-268 CNS
COLO 205 colon = test system: COLO 205 colon
786-0 renal = test system: 786-0 renal
CAKI-1 renal = test system: CAKI-1 renal
HCC-2998 colon = test system: HCC-2998 colon
SK-MEL-2 melanoma = test system: SK-MEL-2 melanoma
DMS 273 small cell lung = test system: DMS 273 small cell lung
DMS 114 small cell lung = test system: DMS 114 small cell lung
SK-MEL-28 melanoma = test system: SK-MEL-28 melanoma
HL-60(TB) leukemia = test system: HL-60(TB) leukemia
SK-OV-3 ovarian = test system: SK-OV-3 ovarian
MOLT-4 leukemia = test system: MOLT-4 leukemia
NCI-H226 lung = test system: NCI-H226 lung
SF-539 CNS = test system: SF-539 CNS
HOP-92 NSCLC = test system: HOP-92 NSCLC
CCRF-CEM leukemia = test system: CCRF-CEM leukemia
DLD-1 colon = test system: DLD-1 colon
M19-MEL melanoma = test system: M19-MEL melanoma
SNB-78 CNS = test system: SNB-78 CNS
NCI-H23 lung = test system: NCI-H23 lung
M14 melanoma = test system: M14 melanoma
NCI-H522 lung = test system: NCI-H522 lung
SNB-19 CNS = test system: SNB-19 CNS
HCT-15 colon = test system: HCT-15 colon
SW-620 colon = test system: SW-620 colon
EKVX NSCLC = test system: EKVX NSCLC
SN12C renal = test system: SN12C renal
KM20L2 colon = test system: KM20L2 colon
HOP-18 NSCLC = test system: HOP-18 NSCLC
ACHN renal = test system: ACHN renal
NCI-H460 lung = test system: NCI-H460 lung
RXF 393 renal = test system: RXF 393 renal
LOX IMVI melanoma = test system: LOX IMVI melanoma
TK-10 renal = test system: TK-10 renal
KM12 colon = test system: KM12 colon
A549 NSCLC = test system: A549 NSCLC
U251 CNS = test system: U251 CNS
HT29 colon = test system: HT29 colon
UACC-257 melanoma = test system: UACC-257 melanoma
SK-MEL-5 melanoma = test system: SK-MEL-5 melanoma
OVCAR-3 ovarian = test system: OVCAR-3 ovarian
OVCAR-8 ovarian = test system: OVCAR-8 ovarian
A498 renal = test system: A498 renal
OVCAR-5 ovarian = test system: OVCAR-5 ovarian

Measured: TGI

Cc1c2n(c3ccccc13)CC1CON(C)C21 (stereo not drawn)
> 100 µM: UO-31 renal | UACC-62 melanoma | MALME-3M melanoma | HOP-62 NSCLC | RPMI-8226 leukemia | K-562 leukemia | RXF-631 renal | SR leukemia | OVCAR-4 ovarian | HCT-116 colon | SNB-75 CNS | LXFL 529 NSCLC | IGROV1 ovarian | SF-268 CNS | COLO 205 colon | 786-0 renal | CAKI-1 renal | HCC-2998 colon | SK-MEL-2 melanoma | DMS 273 small cell lung | DMS 114 small cell lung | SK-MEL-28 melanoma | HL-60(TB) leukemia | SK-OV-3 ovarian | MOLT-4 leukemia | NCI-H226 lung | SF-539 CNS | HOP-92 NSCLC | CCRF-CEM leukemia | DLD-1 colon | M19-MEL melanoma | SNB-78 CNS | NCI-H23 lung | M14 melanoma | NCI-H522 lung

O=C(O)Cn1c(=O)[nH]c(=O)c2[nH]cnc21
> 100 µM: UO-31 renal | UACC-62 melanoma | MALME-3M melanoma | HOP-62 NSCLC | K-562 leukemia | SNB-19 CNS | HCT-15 colon | RXF-631 renal | SR leukemia | OVCAR-4 ovarian | SW-620 colon | HCT-116 colon | EKVX NSCLC | SNB-75 CNS | LXFL 529 NSCLC | IGROV1 ovarian | SF-268 CNS | COLO 205 colon | 786-0 renal | SN12C renal | HCC-2998 colon | SK-MEL-2 melanoma | KM20L2 colon | DMS 273 small cell lung | HOP-18 NSCLC | DMS 114 small cell lung | SK-MEL-28 melanoma | ACHN renal | NCI-H460 lung | RXF 393 renal | HL-60(TB) leukemia | LOX IMVI melanoma | SK-OV-3 ovarian | MOLT-4 leukemia | TK-10 renal | SF-539 CNS | CCRF-CEM leukemia | DLD-1 colon | M19-MEL melanoma | KM12 colon | SNB-78 CNS | A549 NSCLC | U251 CNS | HT29 colon | NCI-H23 lung | M14 melanoma | UACC-257 melanoma | SK-MEL-5 melanoma | OVCAR-3 ovarian | OVCAR-8 ovarian | A498 renal | OVCAR-5 ovarian | NCI-H522 lung
